Results as given in US6706740B2, “Fungicidal heterocyclic aromatic amides and their compositions, methods of use and preparation” (Dow AgroSciences LLC, priority 1999, dated 2004).
Where two headings read alike, the source gives them in different places.

Legend:
Septoria tritici—SEPTTR = test: Leaf Blotch of Wheat, in vivo whole plant, 24 Hour Protectant; details: for pest or weed control at 100 ppm: Zymoseptoria tritici, 24 h, control of fungal infection vs untreated plants, read-out: SEPTTR in vivo 1 Day Protectant
[1] = tested on: Rhizoctonia solani (RHIZSO); test: microbe, parasite or virus in culture; format: cell-based; details: Rhizoctonia solani, read-out: RHIZSO in vitro Growth Inhibition
[2] = tested on: Phytophthora infestans (PHYTIN); test: microbe, parasite or virus in culture; format: cell-based; details: Phytophthora infestans, read-out: PHYTIN in vitro Growth Inhibition
Ustilago maydis (USTIMA) = test: microbe, parasite or virus in culture; format: cell-based; details: Mycosarcoma maydis, read-out: USTIMA in vitro Growth Inhibition
[3] = tested on: Phytophthora infestans—PHYTIN; test: whole plant or invertebrate; format: in vivo; details: for pest or weed control at 100 ppm: Phytophthora, in Solanum lycopersicum, 24 h, read-out: PHYTIN in vivo 1 Day Protectant
[4] = tested on: Stagonospora nodorum (Leptosphaeria nodorum—LEPTNO); test: In vitro fungal growth inhibition, Stagonospora nodorum (LEPTNO); format: cell-based; details: Leptosphaeria, read-out: LEPTNO in vitro Growth Inhibition
[5] = tested on: Magnaporthe grisea (Pyricularia oryzae—PYRIOR); test: microbe, parasite or virus in culture; format: cell-based; details: Pyricularia oryzae, read-out: PYRIOR in vitro Growth Inhibition
[6] = tested on: Mycosphaerella graminicola (Septoria tritici—SEPTTR); test: In vitro fungal growth inhibition, Mycosphaerella graminicola (SEPTTR); format: cell-based; details: Zymoseptoria tritici, read-out: SEPTTR in vitro Growth Inhibition
Erysiphe graminis—ERYSGT = test: Powdery Mildew of Wheat, in vivo whole plant, 24 Hour Protectant; details: Erysiphe, read-out: ERYSGT in vivo 1 Day Protectant
[7] = tested on: Puccinia recondita—PUCCRT; test: Brown Rust of Wheat, in vivo whole plant, 24 Hour Protectant; details: for pest or weed control at 100 ppm: Puccinia, read-out: PUCCRT in vivo 1 Day Protectant
[8] = tested on: Leptosphaeria nodorum—LEPTNO; test: Glume Blotch of Wheat, in vivo whole plant, 24 Hour Protectant; details: for pest or weed control at 100 ppm: Leptosphaeria, read-out: LEPTNO in vivo 1 Day Protectant
[9] = 100 ppm spray, wheat, 24 hour protectant
[10] = 100 ppm spray, wheat, 24 hour protectant, control of fungal infection vs untreated plants
[11] = 100 ppm spray, wheat, 24 hour protectant, % control of fungal infection vs untreated plants
[12] = wheat plants sprayed at 100 ppm, inoculated after 24 hours
[13] = wheat plants sprayed at 100 ppm, inoculated after 24 hours, control of fungal infection vs untreated plants
[14] = 100 ppm spray, 24 hour protectant, wheat
[15] = 100 ppm spray, 24 hour protectant, wheat, control of fungal infection vs untreated plants

## COc1ccnc(C(=O)N[C@H]2COC(=O)[C@H](Cc3ccccc3)[C@@H](OC(C)=O)[C@H](C)OC2=O)c1O [Compound 385]
Septoria tritici—SEPTTR; [9]
  pest or weed control at 100 ppm: 25 to 74%
[1]
  inhibition at 25 ppm: < 80%
other
  melting point: 194 to 196 °C
[2]
  inhibition at 25 ppm: < 80%
Ustilago maydis (USTIMA)
  inhibition at 25 ppm: < 80%
[3]
  pest or weed control at 100 ppm: 25 to 74%
[4]; 25 ppm in growth medium
  inhibition at 25 ppm: > 80%
[5]
  inhibition at 25 ppm: < 80%
[6]; 25 ppm in growth medium
  inhibition at 25 ppm: > 80%
Erysiphe graminis—ERYSGT; [10]
  pest or weed control at 100 ppm: < 25%
[7]; [10]
  pest or weed control at 100 ppm: 25 to 74%
[8]; [10]
  LEPTNO in vivo 1 Day Protectant: + +

## COCCC(=O)Oc1c(OC)ccnc1C(=O)N[C@H]1COC(=O)[C@H](Cc2ccccc2)[C@@H](OC(=O)C(C)C)[C@H](C)OC1=O [Compound 658]
Septoria tritici—SEPTTR; [11]
  SEPTTR in vivo 1 Day Protectant: + +
[1]
  inhibition at 25 ppm: < 80%
other
  melting point: 126 to 128 °C
[2]
  inhibition at 25 ppm: < 80%
Ustilago maydis (USTIMA)
  inhibition at 25 ppm: < 80%
[3]
  pest or weed control at 100 ppm: < 25%
[4]; 25 ppm in growth medium
  inhibition at 25 ppm: < 80%
[5]
  inhibition at 25 ppm: > 80%
[6]; 25 ppm in growth medium
  inhibition at 25 ppm: < 80%
Erysiphe graminis—ERYSGT; [11]
  pest or weed control at 100 ppm: < 25%
[7]; [11]
  PUCCRT in vivo 1 Day Protectant: + +
[8]; [11]
  LEPTNO in vivo 1 Day Protectant: + +

## O=C(Oc1cccnc1C(=O)NC1CCC(OC(=O)c2ccccc2)CC1)c1ccccc1 (stereo not drawn) [Compound 567]
Septoria tritici—SEPTTR; [12]
  pest or weed control at 100 ppm: 25 to 74%
[1]
  inhibition at 25 ppm: < 80%
other
  melting point: 174 to 177 °C
[2]
  inhibition at 25 ppm: < 80%
Ustilago maydis (USTIMA)
  inhibition at 25 ppm: < 80%
[3]; tomato plants sprayed at 100 ppm, inoculated after 24 hours, control of fungal infection vs untreated plants
  PHYTIN in vivo 1 Day Protectant: + +
[4]; 25 ppm in the growth medium
  inhibition at 25 ppm: < 80%
[5]
  inhibition at 25 ppm: < 80%
[6]; 25 ppm in the growth medium
  inhibition at 25 ppm: < 80%
Erysiphe graminis—ERYSGT; [13]
  pest or weed control at 100 ppm: < 25%
[7]; [13]
  pest or weed control at 100 ppm: < 25%
[8]; [13]
  pest or weed control at 100 ppm: 25 to 74%

## CSc1nnc(C(=O)Nc2ccc(Oc3cccc(C(F)(F)F)c3)cc2)c(O)n1 [Compound 548]
Septoria tritici—SEPTTR; [12]
  pest or weed control at 100 ppm: 25 to 74%
[1]
  inhibition at 25 ppm: < 80%
other
  melting point: 261 to 265 °C
[2]
  inhibition at 25 ppm: < 80%
Ustilago maydis (USTIMA)
  inhibition at 25 ppm: < 80%
[3]
  pest or weed control at 100 ppm: 25 to 74%
[4]; 25 ppm in the growth medium
  inhibition at 25 ppm: < 80%
[5]
  inhibition at 25 ppm: < 80%
[6]; 25 ppm in the growth medium
  inhibition at 25 ppm: < 80%
Erysiphe graminis—ERYSGT; [13]
  pest or weed control at 100 ppm: < 25%
[7]; [13]
  pest or weed control at 100 ppm: < 25%
[8]; [13]
  pest or weed control at 100 ppm: 25 to 74%

## COc1ccnc(C(=O)Nc2cccc(Oc3ccc(C(F)(F)F)cc3)n2)c1O [Compound 469]
Septoria tritici—SEPTTR; [12]
  pest or weed control at 100 ppm: 25 to 74%
[1]
  inhibition at 25 ppm: < 80%
other
  melting point: 149 to 151 °C
[2]
  inhibition at 25 ppm: < 80%
Ustilago maydis (USTIMA)
  inhibition at 25 ppm: < 80%
[3]
  pest or weed control at 100 ppm: < 25%
[4]; 25 ppm in the growth medium
  inhibition at 25 ppm: > 80%
[5]
  inhibition at 25 ppm: > 80%
[6]; 25 ppm in the growth medium
  inhibition at 25 ppm: < 80%
Erysiphe graminis—ERYSGT; [13]
  pest or weed control at 100 ppm: < 25%
[7]; [13]
  PUCCRT in vivo 1 Day Protectant: + +
[8]; [13]
  pest or weed control at 100 ppm: 25 to 74%

## O=C(NCc1cccc2ccccc12)c1ncccc1O [Compound 228]
Septoria tritici—SEPTTR; [14]
  pest or weed control at 100 ppm: < 25%
[1]
  inhibition at 25 ppm: < 80%
other
  melting point: 106 to 109 °C
[2]
  inhibition at 25 ppm: < 80%
Ustilago maydis (USTIMA)
  inhibition at 25 ppm: < 80%
[3]
  pest or weed control at 100 ppm: 25 to 74%
[4]; 25 ppm in growth medium
  inhibition at 25 ppm: < 80%
[5]
  inhibition at 25 ppm: < 80%
[6]; 25 ppm in growth medium
  inhibition at 25 ppm: < 80%
Erysiphe graminis—ERYSGT; [15]
  pest or weed control at 100 ppm: < 25%
[7]; [15]
  pest or weed control at 100 ppm: < 25%
[8]; [15]
  pest or weed control at 100 ppm: < 25%

## COc1ccnc(C(=O)Nc2ccc(OC3CC(C)(C)OC(C)(C)C3)cc2)c1O [Compound 459]
Septoria tritici—SEPTTR; [9]
  pest or weed control at 100 ppm: 25 to 74%
[1]
  inhibition at 25 ppm: < 80%
other
  melting point: 161 to 163 °C
[2]
  inhibition at 25 ppm: < 80%
Ustilago maydis (USTIMA)
  inhibition at 25 ppm: < 80%
[3]
  pest or weed control at 100 ppm: < 25%
[4]; 25 ppm in growth medium
  inhibition at 25 ppm: < 80%
[5]
  inhibition at 25 ppm: < 80%
[6]; 25 ppm in growth medium
  inhibition at 25 ppm: < 80%
Erysiphe graminis—ERYSGT; [10]
  pest or weed control at 100 ppm: 25 to 74%
[7]; [10]
  pest or weed control at 100 ppm: 25 to 74%
[8]; [10]
  LEPTNO in vivo 1 Day Protectant: + +

## COc1ccnc(C(=O)NC(C)c2ccc(Cl)cc2)c1O (stereo not drawn) [Compound 246]
Septoria tritici—SEPTTR; [14]
  pest or weed control at 100 ppm: 25 to 74%
[1]
  inhibition at 25 ppm: < 80%
other
  melting point: 140 to 142 °C
[2]
  inhibition at 25 ppm: < 80%
Ustilago maydis (USTIMA)
  inhibition at 25 ppm: < 80%
[3]
  pest or weed control at 100 ppm: < 25%
[4]; 25 ppm in growth medium
  inhibition at 25 ppm: < 80%
[5]
  inhibition at 25 ppm: < 80%
[6]; 25 ppm in growth medium
  inhibition at 25 ppm: < 80%
Erysiphe graminis—ERYSGT; [15]
  pest or weed control at 100 ppm: 25 to 74%
[7]; [15]
  pest or weed control at 100 ppm: < 25%
[8]; [15]
  LEPTNO in vivo 1 Day Protectant: + +

## CC(C)C(=O)OC1CCC(NC(=O)c2ncccc2O)CC1 (stereo not drawn) [Compound 210]
Septoria tritici—SEPTTR; [14]
  pest or weed control at 100 ppm: 25 to 74%
[1]
  inhibition at 25 ppm: < 80%
other
  melting point: 139 to 142 °C
[2]
  inhibition at 25 ppm: < 80%
Ustilago maydis (USTIMA)
  inhibition at 25 ppm: < 80%
[3]
  pest or weed control at 100 ppm: < 25%
[4]; 25 ppm in growth medium
  inhibition at 25 ppm: < 80%
[5]
  inhibition at 25 ppm: < 80%
[6]; 25 ppm in growth medium
  inhibition at 25 ppm: < 80%
Erysiphe graminis—ERYSGT; [15]
  pest or weed control at 100 ppm: < 25%
[7]; [15]
  pest or weed control at 100 ppm: < 25%
[8]; [15]
  pest or weed control at 100 ppm: < 25%

## COc1ccnc(C(=O)NC2COC(=O)CC3(CCCCC3)CC(=O)OC2)c1O [Compound 380]
Septoria tritici—SEPTTR; [9]
  pest or weed control at 100 ppm: < 25%
[1]
  inhibition at 25 ppm: < 80%
other
  melting point: 107 to 108 °C
[2]
  inhibition at 25 ppm: < 80%
Ustilago maydis (USTIMA)
  inhibition at 25 ppm: < 80%
[3]
  pest or weed control at 100 ppm: < 25%
[4]; 25 ppm in growth medium
  inhibition at 25 ppm: < 80%
[5]
  inhibition at 25 ppm: < 80%
[6]; 25 ppm in growth medium
  inhibition at 25 ppm: < 80%
Erysiphe graminis—ERYSGT; [10]
  pest or weed control at 100 ppm: 25 to 74%
[7]; [10]
  pest or weed control at 100 ppm: < 25%
[8]; [10]
  pest or weed control at 100 ppm: 25 to 74%

## COc1ccnc(C(=O)Nc2cccc(NC(=O)c3ccc(C(F)(F)F)cc3)c2)c1O [Compound 454]
Septoria tritici—SEPTTR; [9]
  pest or weed control at 100 ppm: 25 to 74%
[1]
  inhibition at 25 ppm: < 80%
other
  melting point: 240 to 242 °C
[2]
  inhibition at 25 ppm: < 80%
Ustilago maydis (USTIMA)
  inhibition at 25 ppm: < 80%
[3]
  pest or weed control at 100 ppm: < 25%
[4]; 25 ppm in growth medium
  inhibition at 25 ppm: < 80%
[5]
  inhibition at 25 ppm: < 80%
[6]; 25 ppm in growth medium
  inhibition at 25 ppm: < 80%
Erysiphe graminis—ERYSGT; [10]
  pest or weed control at 100 ppm: < 25%
[7]; [10]
  pest or weed control at 100 ppm: < 25%
[8]; [10]
  pest or weed control at 100 ppm: 25 to 74%
